Experimental data taken from patent US20260022100A1, “NAV1.8 INHIBITOR” (Wuhan Humanwell Innovative Drug Research and Development …, priority 2022, published 2026).

Legend:
Nav1.8 ion channel = Nav1.8 ion channel (Homo sapiens (Human), UniProt Q9Y5Y9); experiment: Inhibitory activity on Nav1.8 ion channel, whole-cell patch-clamp on HEK293/Nav1.8; type: cell-based; settings: HEK293/Nav1.8, whole-cell patch clamp, holding -80 mV, 1 μM TTX
Experimental: Reagents were purchased from Sigma (St. Louis, MO) except NaOH and KOH for acid-base titration. The final concentrations of the test compounds were all prepared on the day of the test and then dissolved in an extracellular fluid. The extracellular fluid (mM) was NaCl, 137; KCl, 4; CaCl2), 1.8; MgCl2, 1; HEPES, 10; glucose 10; and pH 7.4 (NaOH titration). All test and control compound solutions contained 1 μM TTX. The intracellular fluid (mM) was: aspartic acid, 140; magnesium chloride, 2; ethylene glycol tetraacetic acid (EGTA), 11; and N-2-hydroxyethylpiperazine-N′-2-ethanesulfonic acid (HEPES), 10. The pH was adjusted to 7.4 with cesium hydroxide.
The test compounds were dissolved in dimethylsulfoxide (DMSO) at a concentration of 9 mM. On the day of the test, the compounds were then dissolved in the extracellular fluid and prepared into the required concentration.
The cells were transferred to a perfusion chamber and perfusion was carried out using the extracellular fluid. The intracellular fluid was thawed on the day of the experiment. The electrodes were produced by pulling with PC-10 (Narishige, Japan). Whole-cell patch-clamp recording was carried out. Noise was filtered at one fifth of the sampling frequency. The intracellular fluid with ¼ length of the electrode tube was added into the electrode, and the electrode was installed on a probe. The required Protocol was set, the interface was adjusted to Membrane test, and Stage was adjusted to Bath. A positive pressure was applied in the electrode. The tip of the electrode was contacted with the cell. The three-way valve of the air extractor was adjusted to a three-way state. A negative pressure was then applied to the electrode, so that the electrode and the cell formed a high-resistance seal. Stage was adjusted to Patch, and leak was controlled within −200 pA. A negative pressure was successively applied, so that cell membranes were broken, and a current path was formed. Perfusion was carried out by opening the suction filtration device and the extracellular fluid valve. The cell current was observed, and administration was started when the cell current was stable (at least 3 sweep current curves were overlapped). Administration was performed from low concentration to high concentration. The administration time of each concentration was not less than 2 min, and when the current was stable, the concentration was changed for administration.
For administration of the test samples, perfusion was carried out using a perfusion system utilizing the self gravity. […] During the period, the CV % of all peak current amplitudes should be less than 10% to exclude up and down fluctuations of the initial current. The average of the peak current amplitudes recorded for the last 10 times during the initial recording served as the current peak of the negative control. After the initial current was stable, the test samples were dosed starting from a low concentration until the 10 recorded peak currents were again stable or the peak currents were “constant” after and before administration after continuous administration for 5 min. We defined the following two cases as “stable” or “constant”: 1) if the absolute average of the peak current for 10 consecutive scans exceeded 200 pA and the CV value was less than 10%, 2) or the average of the peak current for 10 consecutive scans was between 200 pA and 50 pA and the CV value was less than 30%. The next detection of higher concentration was then given.
The average of the peak current of the last 10 scans of each concentration was taken as the peak current for that concentration for data analysis. If the stable state was not reached within 5 min, the peak current average of the last 10 scans at that time was used for data analysis as the peak current for that concentration. At the same time, the cells were discarded and no longer used for detection of higher concentration. At least two cells were tested per concentration of the compounds. […]

[1] = Pharmacokinetic assay in mice; type: in vivo; settings: male, ICR, mouse, plasma, oral intragastric administration, 10 mg/kg
Experimental: Pharmacokinetic assay in mice was performed, wherein the mice used were 3 male ICR mice and fasted overnight. The mice were orally intragastrically dosed with the medicament (10 mg/kg). Blood was collected before administration and at 15 min, 30 min and 1 h, 2 h, 4 h, 6 h, 8 h, and 24 h after administration. Blood samples were centrifuged at 8000 rpm for 6 min at 4° C., and plasma was collected and stored at −20° C. The plasma at each time point was taken, and 3-5 times its amount of an acetonitrile solution containing an internal standard was added for mixing. The mixture was vortexed for 1 min and then centrifuged at 13000 rpm at 4° C. for 10 min. The supernatant was taken, and 3 times its amount of water was added for mixing. A proper amount of the resulting mixture was taken for LC-MS/MS analysis. The major pharmacokinetic parameters were analyzed using a non-compartmental model in the WinNonlin 7.0 software.

[2] = tested on: spinal nerve-ligated rats; experiment: Spinal nerve ligation neuropathic pain model in rats (Von-Frey mechanical pain threshold); type: in vivo, male SD rat; settings: SNL rats; for Mechanical pain threshold (Mean ± SD), base value before modeling: baseline before modeling
Description: A male SD rat weighing 180-220 g was placed on an operating table in a prone position after anesthesia. An incision was made along the spinal column near the hip bone of the animal, and the fascia and muscle were separated. The L5 transverse process was carefully snapped off with a tweezer. The L5 nerve was separated with a glass needle, and the L5 nerve was ligated with 5-0 ligature. The muscle and the skin were sutured and disinfected with iodophor. After 14 days of modeling, the animals were divided into different groups, 10 animals each group. Different compounds were separately orally administered intragastrically. Mechanical pain thresholds of the animals were detected with Von-Frey fiber filaments at different time points after administration. The specific administration dose and detection time are detailed in Table 3 below.
(§1) The mechanical pain threshold detection method: The pelma of the hind limb to be tested of the test animal was continuously stimulated using the Von-Frey fiber filament to bend the fiber filament, and the foot shrinking reaction of the animal was observed. The tested animals were stimulated one by one according to the sequence of the gram number of the fiber filaments from small to large, and each gram number of the fiber filament was continuously used for stimulation for 5 times. If less than 3 positive reactions were present, the procedure described above was repeated using a larger grade of fiber filament, and if 3 or more positive reactions were present for the first time in the test, the fiber filament was the pain threshold for that animal (3 tests per animal for the average). Fiber filament gram number: 0.6, 1.0, 1.4, 2.0, 4.0, 6.0, 8.0, 10.0, and 15.0; the cut value was 15.0 g.

incision pain model rats = experiment: Incision pain model in rats (Von-Frey mechanical pain threshold); type: in vivo, male SD rat; settings: for Mechanical pain threshold (Mean ± SD), base value before modeling: baseline before modeling
Experimental: A male SD rat weighing 200-250 g was fixed in a prone position after anesthesia. The lateral hind limb sole of the rat was flattened upwards, and the toes were fixed using an operation adhesive tape. Sterilization was performed. A 0.5 cm position of the plantar heel of the animal was incised with a scalpel towards the toe end to incise the fascia and the skin to make a longitudinal incision of about 1 cm. After the flexor digitorum brevis was lifted by the surgical forceps, the abdomen of the muscle was longitudinally incised with a scalpel without completely cutting off the muscle. The skin was sutured and disinfected. On the second day of modeling, the animals were divided into different groups, 8 animals each group. Different compounds were separately orally administered intragastrically. Mechanical pain thresholds of the animals were detected with Von-Frey fiber filaments at different time points after administration. The specific grouping administration dose and detection time are detailed in Table 4 below.
as §1

| SMILES | IC50 (Nav1.8 ion channel) | AUC(0-t) [1] | Cmax [1] | Tmax [1] | half-life [1] | Mechanical pain threshold (Mean ± SD), base value before modeling ([2]; 100 mpk group) | Mechanical pain threshold (Mean ± SD), 1 h after administration ([2]; 100 mpk oral intragastric) | Mechanical pain threshold (Mean ± SD), 3 h after administration ([2]; 100 mpk oral intragastric) | Mechanical pain threshold (Mean ± SD), base value before modeling (incision pain model rats; 100 mpk group) | Mechanical pain threshold (Mean ± SD), 1 h after administration (incision pain model rats; 100 mpk oral intragastric) | Mechanical pain threshold (Mean ± SD), 3 h after administration (incision pain model rats; 100 mpk oral intragastric) | Mechanical pain threshold (Mean ± SD), 6 h after administration (incision pain model rats; 100 mpk oral intragastric) | Mechanical pain threshold (Mean ± SD), base value before modeling ([2]; 30 mpk group) | Mechanical pain threshold (Mean ± SD), 1 h after administration ([2]; 30 mpk oral intragastric) | Mechanical pain threshold (Mean ± SD), 3 h after administration ([2]; 30 mpk oral intragastric) | Mechanical pain threshold (Mean ± SD), 6 h after administration ([2]; 30 mpk oral intragastric, 6 h) | Mechanical pain threshold (Mean ± SD), base value before modeling (incision pain model rats; 30 mpk group) | Mechanical pain threshold (Mean ± SD), 1 h after administration (incision pain model rats; 30 mpk oral intragastric) | Mechanical pain threshold (Mean ± SD), 3 h after administration (incision pain model rats; 30 mpk oral intragastric) | Mechanical pain threshold (Mean ± SD), 6 h after administration (incision pain model rats; 30 mpk oral intragastric) |
| --- | --- | --- | --- | --- | --- | --- | --- | --- | --- | --- | --- | --- | --- | --- | --- | --- | --- | --- | --- | --- |
| O=C(Nc1cnc[n+]([O-])c1)c1cc(Cl)c(Cl)cc1Oc1ccc(OC(F)(F)F)cc1 [Compound I-1, 5-(4,5-Dichloro-2-(4-(trifluoromethoxy)phenoxy)benzamido)pyrimidine 1-oxide] | 14 nM | 17300 ng·h/mL | 7370 ng/mL | 0.25 h | 2.74 h | 13.6 ± 1.7 g | 11.0 ± 4.0 g | 11.1 ± 3.7 g | 12.6 ± 1.7 g | 12.5 ± 1.9 g | 11.4 ± 2.0 g | 8.4 ± 1.2 g |  |  |  |  |  |  |  |  |
| CC(C)C[C@H](CN)CC(=O)O [Pregabalin, reference compound] |  |  |  |  |  |  |  |  |  |  |  |  | 13.6 ± 2.7 g | 13.8 ± 2.3 g | 12.3 ± 2.9 g | 12.1 ± 2.3 g | 12.7 ± 1.7 g | 12.4 ± 1.9 g | 11.6 ± 1.1 g | 11.3 ± 1.4 g |
